# Values joined by “and” are separate entries in the source; they are usually repeats but may differ in a detail not shown here. Identical values can stand only once.
# What was measured:
# [1] = cited from earlier work; for pH at which precipitates began to form: combined with NaOH
# peripheral nerve [2] = conditions: cited from earlier work; for extension of standard peripheral nerve block: dexmedetomidine and clonidine, along with corticosteroids; for duration of peripheral nerve block, local anesthetic alone: no adjuvant or steroid; for life of peripheral nerve blocks and tissue infiltrates with adjuvants: with epinephrine, corticosteroids, α2-agonists
# target nerve = experiment: ALALA-carbonate nerve block by injection of Solution 1 and Solution 2; format: in vivo, human; conditions: ALALA-carbonate precipitate in and around the nerve
# Text: As shown in FIGS. 17-23, the establishment of a 5-day peripheral nerve block involves the injection of two separate and sequential solutions to form the ALALA-compound precipitate and crystals in vivo around the nerves for specific nerve blocks. These solutions form the ALALA-compound precipitates and crystals. As the two solutions must be kept separate until injection over the specific nerve is accomplished, the solutions may then react to form the ALALA-compound precipitate and crystals in vivo. This separation of solutions by two different means: • 1. The sequential injection of two separate solutions through a single needle (FIGS. 17-19 and 22). • 2. The simultaneous injection of both solutions through a bifurcated needle where mixing occurs only at the needle tip(s) opposite the target nerve (FIGS. 20 and 21). These alkaline solutions are: • 1. […] Epinephrine 86 is present at a concentration of ˜3 mcg/ml, primarily as a standard vascular marker producing mild tachycardia if leakage into the vascular system occurs. When Solution 1 is given, a pulse-oximeter or EKG rhythm strip must be run to confirm no tachycardia for 2 minutes to ensure Solution 1 has no leakage into the vascular system with a resulting tachycardia greater than 15% above baseline pulse. […] Solution 2 is injected only if no increase impulse rate greater than 15% above baseline is determined within 2 minutes. • 3. […]
# peripheral nerve [3] = format: in vivo, human
# Text: The mass of ALALA drug precipitated around the peripheral nerve or infiltrated tissue causes the intraneural metabolic mechanism transforming unionized to ionized ALALA drug to get overwhelmed. Thus, the normal transformation to ionized ALALA drug gets delayed to the point it takes 5 days or longer for all the ALALA drug to be metabolized and the block to wear off.
# [4] = format: physicochemical; conditions: for drug mass remaining in solution: 0.375 %; for drug mass precipitated: equal volumes of 8.4% NaHCO3 and 0.75% anesthetic solution, in vitro
# Text: Because of their elevated pKa's, ALALA drugs will form a crystalline precipitate 82 in an alkaline environment, both intra-axonally and extra-axonally (at the nodes of Ranvier 20 in A-delta fibers and generally around the axon in C-fibers). […] It is anticipated levo-bupivacaine will react similarly to levo-ropivacaine at 96.5% conversion to precipitate and crystallization when this drug becomes available.
# NaHCO3 in Solution 1, when mixed with bupivacaine, levo-bupivacaine, or ropivacaine of Solution 2, will cause these drugs to immediately precipitate into crystals in this alkaline solution.
# As discovered in our laboratory, 8.4% NaHCO3, when combined in vitro with bupivacaine or ropivacaine, results in precipitates of 93.5% and 96.5% respectively of the parent ALALA drug. […] Controlling the pH of the final combination of all these drugs and bases more efficiently controls the percentage of ALALA converted to precipitate and crystals and thereby the duration of the resulting nerve block.
# axolemma or node = system: axolemma or node
# Procedure: It is this small amount of bupivacaine within the axolemma/node that results, primarily, in continuing neural blockade for periods of 120 hours or more.
# [5] = Test-tube combination of levobupivacaine with NaHCO3 versus molar prediction; format: physicochemical
# Text: In a test-tube with one mole of ropivacaine or levobupivacaine reacting with one mole of NaHCO3, a much higher percentage of ropivacaine or levobupivacaine is converted to the ALALA-bicarbonate precipitate than with racemic bupivacaine. Testing with levobupivacaine with NaHCO3 it was established that, levobupivacaine combines with NaHCO3 much more readily than molar predictions indicated. Where molar quantities predicted a 57.7% combination, an 83.9% combination occurred. Where another molar quantity predicted an 86.5% combination, a 94.0% combining of levobupivacaine and NaHCO3 occurred. Thus levo-enantiomers of the ALALA drugs are the preferred forms to be used to create these ALALA-bicarbonate precipitates.
# [6] = Precipitation of local anesthetics with increasing pH (NaOH) or corticosteroids; format: physicochemical; conditions: alkaline solution
# [7] = humans; cited from earlier work
# [8] = cited from earlier work
Structure (SMILES),pH at which precipitates began to form [1],extension of standard peripheral nerve block (peripheral nerve [2]),"duration of peripheral nerve block, local anesthetic alone (peripheral nerve [2])",life of peripheral nerve blocks and tissue infiltrates with adjuvants (peripheral nerve [2]),drug mass remaining in solution [4],drug mass precipitated [4],also measured
"CCCCN1CCCCC1C(=O)Nc1c(C)cccc1C (racemic) [bupivacaine, (RS)-1-butyl-N-(2,6-dimethylphenyl)piperidine-2-carboxamide]",7.7 pH,~50%,~12 h and 16 h,~24 h,7.47%,93.53% and 93.5% and 92.53%,"duration of neural blockade / analgesia (target nerve): ≥ 120 h; duration of block achieved (peripheral nerve [3]; 225 mg bupivacaine dose, single volunteer): 5 days; depot as percentage of the dose injected (peripheral nerve [3]; human, in vivo): 7.163%; fraction penetrating the axolemma or node before precipitation (axolemma or node): approximately 11.9%"
CC1(C)O[C@@H]2C[C@H]3[C@@H]4CCC5=CC(=O)C=C[C@]5(C)[C@@]4(F)[C@@H](O)C[C@]3(C)[C@]2(C(=O)CO)O1 [Triamcinolone],–,–,–,–,–,–,precipitate effect when combined with the ALALA drugs ([1]; Hwang et al.): no precipitate-effects
"CCCCN1CCCC[C@H]1C(=O)Nc1c(C)cccc1C [levobupivacaine, (S)-1-butyl-N-(2,6-dimethylphenyl)-2-piperidinecarboxamide]",–,–,~12 h,~24 h,–,–,combining of levobupivacaine and NaHCO3 that occurred ([5]; where another molar quantity predicted an 86.5% combination): 94.0%; combination of levobupivacaine and NaHCO3 that occurred ([5]; where molar quantities predicted a 57.7% combination): 83.9%
CCN(CC)CC(=O)Nc1c(C)cccc1C [lidocaine],–,–,–,–,–,–,pH at which lidocaine precipitates [6]: ~11.5 pH
"CCCN1CCCC[C@H]1C(=O)Nc1c(C)cccc1C [ropivacaine, (S)-1-propyl-N-(2,6-dimethylphenyl)piperidine-2-carboxamide]",6.9 pH,~50%,~12 h and 16 h,~24 h,3.50%,96.5%,–
CCCCNc1ccc(C(=O)OCCN(C)C)cc1 [tetracaine],–,–,–,–,–,–,dose at which anaphylactic reactions are known [7]: ≤ 10 mg; pKa relative to bupivacaine [8]: higher than bupivacaine

# From US12070454B1, “Anesthetic nerve block and method” (PFOF LLC, priority 2022, dated 2024)
